Experimental data taken from patent US11827703B2, “Compositions and methods related to anti-CD19 antibody drug conjugates” (LegoChem Biosciences, Inc., priority 2018, dated 2023).

Experiments:
[1] = tested on: SU-DHL-6; assay: Anti-proliferation assay (CellTiter-Glo), SU-DHL-6; assay type: cell-based, human; conditions: SU-DHL-6, 96 hour treatment
Protocol: (§1) Commercially available 6 B cell lymphoma cancer cell lines DOHH-2 (DSMZ, #ACC 47), NALM-6 (DSMZ, #ACC 58), Ramos (ECACC, #85030802), SU-DHL-6 (ATCC, #CRL-2959), WSU-DLCL2 (DSMZ, #ACC 575) and WSU-NHL (DSMZ, #ACC 58) were used. SG2057 was used as the drug, free toxin. Each of the cancer cell lines was seeded in a 96-well plate at 2000 to 10000 per well for the 96 hour treatment group, incubated for 2 hours, and then treated with drug and ADC at a concentration of from 0.00025 to 100 nM (5-fold times serial dilutions). After 96 hours, the number of living cells was quantified using CellTiter-Glo Luminescent cell viability assay (Promega-G7573). Inhibition rate (IR) of the drug and ADC were determined by the following formula: IR (%)=(1−(RLU compound−RLU blank)/(RLU control−RLU blank))*100%. The inhibitions of different dose of samples were calculated in Excel file, and then were used to plot inhibition curve and evaluate related parameters, such as Bottom (%), Top (%) and Relative IC50. The IC50 for each experiment and treatment was calculated (See table below).

[2] = tested on: WSU-NHL; assay: Anti-proliferation assay (CellTiter-Glo), WSU-NHL; assay type: cell-based; conditions: 96 hour treatment
Protocol: as §1

[3] = tested on: DOHH2; assay: Anti-proliferation assay (CellTiter-Glo), DOHH2; assay type: cell-based; conditions: DOHH2, 96 hour treatment
Protocol: as §1

[4] = tested on: NALM6; assay: Anti-proliferation assay (CellTiter-Glo), NALM6; assay type: cell-based, human; conditions: NALM6, 96 hour treatment
Protocol: as §1

[5] = tested on: WSU-DLCL2; assay: Anti-proliferation assay (CellTiter-Glo), WSU-DLCL2; assay type: cell-based; conditions: WSU-DLCL2, 96 hour treatment
Protocol: as §1

[6] = tested on: Ramos; assay: Anti-proliferation assay (CellTiter-Glo), Ramos; assay type: cell-based, human; conditions: 96 hour treatment
Protocol: as §1

[7] = tested on: Ramos Burkitt's lymphoma cells; assay: Ramos non-Hodgkin lymphoma xenograft model; conditions: Ramos s.c. xenograft, i.v. treatment
Protocol: Anti-tumor activity of anti-CD19 (9G8) Antibody Drug Conjugate was evaluated in immunodeficient CB-17 scid mice subcutaneously engrafted with Ramos Burkitt's lymphoma cells.
CB17-SCID mice (Charles River), aged 7 weeks, were implanted subcutaneously (s.c.) in the right flank with 5×10^6 Ramos cells (obtained from ATCC). Tumor volumes (calculated using the formula TV=(0.5×[length×width^2]) were measured by digital caliper 3 times a week and mice were recruited for treatment when tumor volumes reached 200-250 mm^3. Mice were assigned to different groups (see table below) in order to obtain homogeneous mean tumor volumes between cohorts (n=7-8 mice per group. Mean tumor volume: hIgG1 control 1 mg/kg, 1 inj.: 243 mm^3±26; anti-CD19 CaaX 1 mg/kg, 1 inj.: 233 mm^3±18; hIgG1 ADC 1 mg/kg, 1 inj.: 224 mm^3±20; anti CD19 ADC 0.33 mg/kg, 1 inj.: 242 mm^3±28; anti CD19 ADC 0.66 mg/kg, 1 inj.: 234 mm^3±23; anti CD19 ADC 1 mg/kg, 1 inj.: 234 mm^3±31; anti CD19 ADC 0.33 mg/kg 1 inj./week during 3 weeks: 251 mm^3±25; rituximab 6 mg/kg, 1 inj.: 242 mm^3±31). Single dose or multiple dose (only for cohort anti-CD19 ADC 0.33 mg/kg 1×/week, 3 weeks) treatments were injected i.v. in the tail vein. Mice were then monitored for body weight 3 times a week and for tumor growth 3 times a week until the endpoint of the experiment (tumor volume=1500 mm^3).

[8] = tested on: cynomolgus CD19; assay: FACS binding to CHO cell line transfected with cynomolgus CD19; set-up: species or system cynomolgus monkey; conditions: transfected CHO cynoCD19 cells, 10 to 0.01 μg/mL
Protocol: The ability of the anti-CD19 antibodies to bind human and/or cynomolgus monkey CD19 was evaluated.
In particular, the human IgG1 5F5, 7F11, 9G8, F6, 7F1, and 10D8 anti-CD19 antibodies were evaluated for their abilities to bind a CHO cell line transfected with cynomolgus CD19 and a negative control cell line (CHO). All incubations were prepared in FACS buffer (PBS, BSA 2%) at 4° C. Fc receptors on B cells were blocked with 10% mouse serum. Four doses of hIgG1 were tested: 10, 1, 0.1 and 0.01 μg/mL.

[9] = tested on: human B lymphocyte cell lines: Raji, Ramos, Nalm6, Su-DHL6, Su-DHL4, and Mec2; assay: FACS binding to human B lymphocyte cell lines; conditions: comparison of cell lines
Protocol: The ability of various anti-CD19 antibodies of the disclosure to bind various human B lymphocyte cell lines was evaluated. In particular, the human IgG1 5F5, 7F11, 9G8, F6, 7F1, and 10D8 anti-CD19 antibodies were evaluated for their abilities to bind (i) six human B lymphocyte cell lines: Raji, Ramos, Nalm6, Su-DHL6, Su-DHL4, and Mec2, (ii) a CD19 silenced B cell line: Raji siRNA; and a negative cell line (Jurkat). All incubations were prepared in FACS buffer (PBS, BSA 2%) at 4° C. Fc receptors on B cells were blocked with 10% mouse serum. Four doses of hIgG1 were tested: 10, 1, 0.1 and 0.01 μg/mL. Cell surface bound hIgG1 were detected with a mouse anti-human IgG Fc-PE mAb.

C=C1C[C@H]2C=Nc3cc(OCCCCCOc4cc5c(cc4OC)C(=O)N4CC(=C)C[C@H]4C=N5)c(OC)cc3C(=O)N2C1 [Free dPBD (SG2057), SG2057]
IC50 [1]: 50 pM
IC50 [2]: 13 pM
IC50 [3]: 5.4 pM
IC50 [4]: 3.5 pM
IC50 [5]: 4 pM
IC50 [6]: 150 pM

rituximab
mice reaching the tumor size endpoint (tumor volume=1500 mm^3) [7]: four of seven mice reached the endpoint
survival to day 70 ([7]; rituximab 6 mg/kg single): three survived to day 70

B1: F6: anti-CD19 antibody, VH SEQ ID NO: 12, VL SEQ ID NO: 14 (antibody, V domains shown)
VH: EVQLVQSGAEVKKPGESLKISCKGSGYSFTSYWIGWVRQMPGKGLEWMGIIYPGDSDTRYSPSFQGQVTISADKSISTAYLQWSSLKASDTAMYYCARVWYYDFWSGADAFDIWGQGTLVTVSS
VL: EIVMTQSPATLSVSPGERATLSCRASQSVSSNLAWYQQKPGQAPRLLIYGASTRATGIPARFSGSGSGTEFTLTISSLQSEDFAVYYCQQGSLEAPQTFGQGTKVEIK
cross-reactivity with cynomolgus CD19 [8]: slightly cross-reactive

B2: 10D8: anti-CD19 antibody, VH SEQ ID NO: 20, VL SEQ ID NO: 22 (antibody, V domains shown)
VH: QVQLVQSGAEVKKPGSSVKVSCKASGGTFSSYAISWVRQAPGQGLEWMGGIIPIFGTANYAQKFQGRVTITADESTSTAYMELSSLRSEDTAVYYCARDRGYDYVWGSYRYGAFDIWGQGTLVTVSS
VL: QSALTQPASVSGSPGQSITISCTGTSSDVGGYNYVSWYQQHPGKAPKLMIYEVSNRPSGVSNRFSGSKSGNTASLTISGLQAEDEADYYCSSYDVWVPHMVFGGGTKLTVL
binding profile Nalm6 versus Raji cells [9]: bind better to Nalm6 than to Raji cells
cross-reactivity with cynomolgus CD19 [8]: did not bind

B3: 7F1: anti-CD19 antibody, VH SEQ ID NO: 16, VL SEQ ID NO: 18 (antibody, V domains shown)
VH: EVQLVQSGAEVKKPGESLKISCKGSGYSFTSYWIGWVRQMPGKGLEWMGIIYPGDSDTRYSPSFQGQVTISADKSISTAYLQWSSLKASDTAMYYCARGDYWTGFAYWGQGTLVTVSS
VL: QSVLTQPPSVSAAPGQKVTISCSGSSSNIGNNYVSWYQQLPGTAPKLLIYDNNKRPSGIPDRFSGSKSGTSATLGITGLQTGDEADYYCGTWDLGWNSVFGGGTKLTVL
binding profile Nalm6 versus Raji cells [9]: bind better to Nalm6 than to Raji cells
cross-reactivity with cynomolgus CD19 [8]: did not bind

B4: 9G8: anti-CD19 antibody, VH SEQ ID NO: 6, VL SEQ ID NO: 10 (antibody, V domains shown)
VH: EVQLVQSGAEVKKPGESLKISCKGSGYSFTSYWIGWVRQMPGKGLEWMGIIYPGDSDTRYSPSFQGQVTISADKSISTAYLQWSSLKASDTAMYYCARGVSGIYNLHGFDIWGQGTLVTVSS
VL: DIQMTQSPSSLSASVGDRVTITCRASQSISSYLNWYQQKPGKAPKLLIYAASSLQSGVPSRFSGSGSGTDFTLTISSLQPEDFATYYCQQGRFGSPFTFGQGTKVEIK
cross-reactivity with cynomolgus CD19 [8]: clearly cross-reactive

B5: 5F5: anti-CD19 antibody, VH SEQ ID NO: 2, VL SEQ ID NO: 4 (antibody, V domains shown)
VH: EVQLVQSGAEVKKPGESLKISCKGSGYSFTSYWIGWVRQMPGKGLEWMGIIYPGDSDTRYSPSFQGQVTISADKSISTAYLQWSSLKASDTAMYYCARGISGIYNLHGFDIWGQGTLVTVSS
VL: DIQMTQSPSSLSASVGDRVTITCRASQSISSYLNWYQQKPGKAPKLLIYAASSLQSGVPSRFSGSGSGTDFTLTISSLQPEDFATYYCQQASLDSPLTFGQGTKVEIK
cross-reactivity with cynomolgus CD19 [8]: slightly cross-reactive

B6: 7F11: anti-CD19 antibody, VH SEQ ID NO: 6, VL SEQ ID NO: 8 (antibody, V domains shown)
VH: EVQLVQSGAEVKKPGESLKISCKGSGYSFTSYWIGWVRQMPGKGLEWMGIIYPGDSDTRYSPSFQGQVTISADKSISTAYLQWSSLKASDTAMYYCARGVSGIYNLHGFDIWGQGTLVTVSS
VL: DIQMTQSPSSLSASVGDRVTITCRASQSISSYLNWYQQKPGKAPKLLIYAASSLQSGVPSRFSGSGSGTDFTLTISSLQPEDFATYYCQQGMWDNPFTFGQGTKVEIK
cross-reactivity with cynomolgus CD19 [8]: slightly cross-reactive
